From patent US11214803B2, “Modulators of YAP1 expression” (Ionis Pharmaceuticals, Inc., priority 2019, dated 2022)
Strand notation (5' to 3'): a small letter for the sugar, then the base; units joined by * are phosphorothioate-linked, units joined directly phosphodiester-linked; [ ] holds rarer units or linkages, { } end groups; capitals alone tell only the bases. k = constrained ethyl (cEt); [5mC] = 5-methylcytosine; d = 2'-deoxy (DNA)

Tested on: Yap1 mRNA
Assay: Antisense inhibition of human Yap1 in A-431 cells by cEt gapmers, single dose (Example 2, RTS4814)
Type: cell-based
Method in brief: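 A-431 cells (5,000/well) received 2,000 nM oligonucleotide by free uptake for about 48 h. Yap1 mRNA was then quantified by RT-qPCR with primer probe set RTS4814, normalized to RIBOGREEN total RNA, and reported as % of untreated control; asterisked values mark oligos inside the amplicon.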

[1] = Table 18, A-431 cells, 5,000 cells per well, free uptake, 2,000 nM modified oligonucleotide, approx. 48 hours, RTS4814, normalized to RIBOGREEN, Yap1 mRNA as percent of untreated control
[2] = Table 32, Yap1 mRNA, percent of untreated control, 3-10-3 cEt gapmers targeting SEQ ID NO.: 1, and 2
[3] = Table 6, A-431 cells, 5,000 cells per well, free uptake, 2,000 nM modified oligonucleotide, approx. 48 hours, RTS4814, normalized to RIBOGREEN, Yap1 mRNA relative to untreated control cells
[4] = Table 19, A-431 cells, 5,000 cells per well, free uptake, 2,000 nM modified oligonucleotide, approx. 48 hours, RTS4814, normalized to RIBOGREEN, Yap1 mRNA as percent of untreated control
[5] = Table 21, Yap1 mRNA, percent of untreated control, 3-10-3 cEt gapmers targeting SEQ ID NO.: 1 and 2
[6] = Table 22, Yap1 mRNA as percent of untreated control, 3-10-3 cEt gapmers, single dose

1074468 (k[5mC]*k[5mC]*kA*d[5mC]*d[5mC]*dG*dA*d[5mC]*d[5mC]*d[5mC]*dT*dG*d[5mC]*k[5mC]*kA*kA; antisense) [Compound 1074468]
YAP1 (% UTC) [1]: 34 % UTC

1074404 (antisense kG*kG*k[5mC]*dT*dT*dA*dT*dG*dG*dA*dA*dA*dT*kT*kT*k[5mC]) [Compound 1074404]
YAP1 (% UTC) [1]: 16 % UTC

1076210 (kA*kT*kT*dT*dA*dT*dA*dT*dG*d[5mC]*dT*d[5mC]*d[5mC]*k[5mC]*kT*k[5mC]; antisense) [compound 1076210]
YAP1 (% UTC) [2]: 20 % UTC

716504 (kA*kT*kA*dA*dA*dA*dG*d[5mC]*d[5mC]*dT*dT*dA*dG*kA*kG*kT; antisense) [Compound 716504]
YAP1 (% UTC) [3]: 112 % UTC

1075529 (kA*kA*kA*dT*d[5mC]*dG*dA*dA*dG*dG*dG*d[5mC]*dA*kA*kA*k[5mC]; antisense) [Compound 1075529]
YAP1 (% UTC) (Table 23, Yap1 mRNA as percent of untreated control, 3-10-3 cEt gapmers, single dose): 84 % UTC

1074155 (antisense k[5mC]*k[5mC]*k[5mC]*dG*dG*d[5mC]*dT*d[5mC]*d[5mC]*dA*d[5mC]*dG*dG*kG*k[5mC]*k[5mC]) [Compound 1074155]
YAP1 (% UTC) (Table 25, Yap1 mRNA as percent of untreated control, 3-10-3 cEt gapmers targeting SEQ ID NO.: 1, and 2): 87 % UTC

1074661 (antisense kG*kA*kA*dT*dT*dT*d[5mC]*dA*dT*dT*dA*d[5mC]*dT*kA*k[5mC]*kT) [Compound 1074661]
YAP1 (% UTC) [4]: 36 % UTC

716525 (antisense k[5mC]*kA*k[5mC]*dA*dG*dT*dA*d[5mC]*dT*dG*d[5mC]*dT*dA*k[5mC]*kA*kA) [Compound 716525]
YAP1 (% UTC) [3]: 64 % UTC

1075493 (antisense kA*kG*kA*d[5mC]*dA*dA*dG*dG*dG*dA*dT*dG*d[5mC]*kT*kA*kA) [Compound 1075493]
YAP1 (% UTC) [4]: 67 % UTC

1076106 (k[5mC]*kT*kA*d[5mC]*dG*dA*dA*dA*dT*dA*dG*dT*dA*kA*k[5mC]*kT; antisense) [Compound 1076106]
YAP1 (% UTC) (Table 24, Yap1 mRNA as percent of untreated control, 3-10-3 cEt gapmers targeting SEQ ID NO.: 1, and 2): 77 % UTC

1075858 (antisense k[5mC]*k[5mC]*kT*dT*dA*dA*dA*d[5mC]*dA*dA*dT*d[5mC]*d[5mC]*k[5mC]*kT*kA) [compound 1075858]
YAP1 (% UTC) [2]: 23 % UTC

1074119 (antisense kG*k[5mC]*kA*d[5mC]*dT*d[5mC]*dG*dG*dA*d[5mC]*d[5mC]*dT*dG*k[5mC]*kG*kG) [Compound 1074119]
YAP1 (% UTC) [5]: 71 % UTC

1074514 (kA*kA*kG*dG*dA*dT*dA*d[5mC]*dA*dT*dT*d[5mC]*d[5mC]*kA*k[5mC]*kT; antisense) [compound 1074514]
YAP1 (% UTC) [2]: 25 % UTC

1074961 (antisense kT*k[5mC]*k[5mC]*dT*d[5mC]*d[5mC]*dT*dT*dA*dA*d[5mC]*d[5mC]*d[5mC]*kG*kG*kG) [compound 1074961]
YAP1 (% UTC) (Yap1 mRNA as percent of untreated control, A-431 cells, 3-10-3 cEt gapmers targeting SEQ ID NO.: 1, and 2, Table 31): 93 % UTC

1075976 (kA*kT*kT*dA*dA*dA*dA*dG*dT*d[5mC]*dG*dG*dG*k[5mC]*k[5mC]*kA; antisense) [Compound 1075976]
YAP1 (% UTC) [6]: 92 % UTC

1075208 (antisense kA*k[5mC]*kT*dG*dA*dA*d[5mC]*dA*d[5mC]*dA*dG*dG*d[5mC]*kT*kA*k[5mC]) [Compound 1075208]
YAP1 (% UTC) [6]: 24 % UTC

1074224 (antisense k[5mC]*kA*kG*dA*dG*dA*d[5mC]*dT*dA*d[5mC]*dT*d[5mC]*d[5mC]*kA*kG*kT) [compound 1074224]
YAP1 (% UTC) (Yap1 mRNA as percent of untreated control, A-431 cells, 3-10-3 cEt gapmers targeting SEQ ID NO.: 1, and 2, Table 30): 16 % UTC

1076007 (k[5mC]*kA*kT*dT*dA*dG*dG*d[5mC]*d[5mC]*dT*dT*dT*dT*kA*k[5mC]*kT; antisense) [Compound 1076007]
YAP1 (% UTC) [5]: 27 % UTC

716511 (antisense kG*kA*kT*d[5mC]*dT*dT*d[5mC]*dT*dG*d[5mC]*dA*d[5mC]*dA*kT*kT*kA) [Compound 716511]
YAP1 (% UTC) (A-431 cells, 5,000 cells per well, free uptake, 2,000 nM modified oligonucleotide, approx. 48 hours, RTS4814, normalized to RIBOGREEN, Table 4, asterisk (*) = targets amplicon region of primer probe set): 51 % UTC

1074276 (antisense k[5mC]*k[5mC]*kA*dA*dG*dA*dG*dG*dT*dG*dG*dT*d[5mC]*kT*kT*kG) [Compound 1074276]
YAP1 (% UTC) [1]: 87 % UTC

1075378 (antisense kA*kA*kA*dA*d[5mC]*dT*dA*dA*dT*d[5mC]*dA*dT*d[5mC]*kG*kA*kT) [compound 1075378]
YAP1 (% UTC) [2]: 83 % UTC
